The values that follow come from ChEMBL document CHEMBL2021874, “Discovery of a series of 2-(1H-pyrazol-1-yl)pyridines as ALK5 inhibitors with potential utility in the prevention of dermal scarring” (Bioorg Med Chem Lett, 2012).

As a reminder, the IC50 is the midpoint of a concentration-inhibition curve. High values mean weaker potency in that assay, low ones greater potency in that assay.

For series [1], the target named is T1, TGF-beta receptor type-1 (Homo sapiens, UniProt P36897).
T1 sequence (P36897 whole entry): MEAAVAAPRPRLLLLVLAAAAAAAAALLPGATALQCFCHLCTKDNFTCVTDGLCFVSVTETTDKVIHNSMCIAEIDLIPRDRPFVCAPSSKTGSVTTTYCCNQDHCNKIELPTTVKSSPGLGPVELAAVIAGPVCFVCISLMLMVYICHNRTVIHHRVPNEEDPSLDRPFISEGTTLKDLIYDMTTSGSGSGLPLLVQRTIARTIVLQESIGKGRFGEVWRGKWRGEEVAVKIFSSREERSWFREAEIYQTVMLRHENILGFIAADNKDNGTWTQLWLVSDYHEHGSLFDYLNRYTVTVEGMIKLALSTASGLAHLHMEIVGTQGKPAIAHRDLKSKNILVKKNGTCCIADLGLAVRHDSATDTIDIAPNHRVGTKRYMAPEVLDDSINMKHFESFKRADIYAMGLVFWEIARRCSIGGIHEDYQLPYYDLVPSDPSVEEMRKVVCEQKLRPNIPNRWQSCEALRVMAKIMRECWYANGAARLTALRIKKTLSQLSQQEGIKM
Kind of series: Inhibition of ALK5.

Another series deals with T2, Activin receptor type-1B (Homo sapiens, UniProt P36896).
T2 sequence (P36896 whole entry): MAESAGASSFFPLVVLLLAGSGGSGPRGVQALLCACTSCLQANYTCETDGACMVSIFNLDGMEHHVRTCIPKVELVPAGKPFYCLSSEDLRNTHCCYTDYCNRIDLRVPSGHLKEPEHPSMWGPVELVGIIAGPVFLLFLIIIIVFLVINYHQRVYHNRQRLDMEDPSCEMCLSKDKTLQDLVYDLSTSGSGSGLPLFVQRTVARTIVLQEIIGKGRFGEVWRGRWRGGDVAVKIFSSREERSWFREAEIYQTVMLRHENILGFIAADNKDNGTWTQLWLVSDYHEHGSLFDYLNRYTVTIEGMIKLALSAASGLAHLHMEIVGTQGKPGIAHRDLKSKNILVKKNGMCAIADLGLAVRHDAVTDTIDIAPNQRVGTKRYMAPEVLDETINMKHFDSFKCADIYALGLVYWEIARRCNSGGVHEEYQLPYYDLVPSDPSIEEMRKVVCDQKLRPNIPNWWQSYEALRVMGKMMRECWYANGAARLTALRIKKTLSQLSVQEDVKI
Kind of series: Inhibition of ALK4.

In series [2] the target is Activin receptor type-1-like (Homo sapiens, UniProt P37023). Kind of series: Inhibition of ALK1.
Chain of Activin receptor type-1-like (P37023 whole entry): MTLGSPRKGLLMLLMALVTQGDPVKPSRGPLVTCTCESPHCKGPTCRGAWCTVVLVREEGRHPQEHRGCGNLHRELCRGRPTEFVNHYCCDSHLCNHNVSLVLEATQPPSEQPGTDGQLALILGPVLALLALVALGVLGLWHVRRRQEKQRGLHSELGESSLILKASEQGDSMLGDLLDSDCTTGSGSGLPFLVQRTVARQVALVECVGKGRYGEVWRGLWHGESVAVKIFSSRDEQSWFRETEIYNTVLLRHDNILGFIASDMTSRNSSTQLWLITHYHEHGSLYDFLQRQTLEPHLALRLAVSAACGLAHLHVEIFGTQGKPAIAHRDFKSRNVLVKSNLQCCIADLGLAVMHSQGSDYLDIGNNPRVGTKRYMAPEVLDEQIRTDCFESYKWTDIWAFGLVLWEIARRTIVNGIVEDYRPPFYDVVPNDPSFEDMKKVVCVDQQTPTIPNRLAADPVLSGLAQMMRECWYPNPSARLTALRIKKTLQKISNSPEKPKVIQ
The target in series [3] is T3, TGF-beta receptor type-1 (Mus musculus, UniProt Q64729).
T3 sequence (Q64729 whole entry): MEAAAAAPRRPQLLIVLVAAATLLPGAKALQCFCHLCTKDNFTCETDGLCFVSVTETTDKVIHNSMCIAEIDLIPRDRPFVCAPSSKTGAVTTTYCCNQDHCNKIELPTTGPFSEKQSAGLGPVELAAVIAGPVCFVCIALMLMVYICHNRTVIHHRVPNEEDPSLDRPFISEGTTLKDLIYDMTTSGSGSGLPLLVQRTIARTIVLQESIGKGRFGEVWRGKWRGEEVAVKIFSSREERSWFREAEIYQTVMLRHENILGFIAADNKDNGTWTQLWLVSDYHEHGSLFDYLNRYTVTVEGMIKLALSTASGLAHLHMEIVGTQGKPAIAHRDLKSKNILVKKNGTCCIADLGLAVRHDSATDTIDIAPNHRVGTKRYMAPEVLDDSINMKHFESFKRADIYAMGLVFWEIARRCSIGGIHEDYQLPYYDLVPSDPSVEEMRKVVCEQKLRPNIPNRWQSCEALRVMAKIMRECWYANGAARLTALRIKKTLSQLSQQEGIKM
The series is described as follows: Inhibition of ALK5 in mouse NIH/3T3 cells by smad binding element reporter based assay. Type of series: cell-based.

Series [4] in a line: Photostability of the compound assessed as compound remaining after exposure to sunlight. The series is classed as physicochemical.
The test system of series [5] is Fibroblast. Kind of series: Inhibition of in TGFbeta-induced COL1A gene expression in human fibroblasts. Type of series: functional, cell-based.
Series [6] has as its system Fibroblast. The series is described as follows: Inhibition of in TGFbeta-induced CTGF gene expression in human fibroblasts. Type of series: functional, cell-based.
The test system of series [7] is Fibroblast. Kind of series: Inhibition of in TGFbeta-induced FN1 gene expression in human fibroblasts. The series is classed as functional, cell-based.
Series [8] relates to Fibroblast. Kind of series: Inhibition of in TGFbeta-induced PAI1 gene expression in human fibroblasts. Type of series: functional, cell-based.
Series [9] deals with Fibroblast. Kind of series: Inhibition of in TGFbeta-induced TGFbeta1 gene expression in human fibroblasts. The series is classed as functional, cell-based.
Series [10] concerns Fibroblast. The series is described as follows: Inhibition of in TGFbeta-induced FSP1 gene expression in human fibroblasts. Type of series: functional, cell-based.
In series [11] the test system is Fibroblast. The series is described as follows: Inhibition of in TGFbeta-induced alpha-SMA gene expression in human fibroblasts. Type of series: functional, cell-based.
Series [12] deals with Fibroblast. The series is described as follows: Inhibition of in TGFbeta-induced SMAD2/3 phosphorylation in human fibroblasts. Type of series: functional, cell-based.
In series [13] the test system is Rattus norvegicus. The series is described as follows: Inhibition of wound healing in rat wound repair model treated topically by measuring wound closure after 7 days. Type of series: functional, organism-based.
Series [14] relates to Rattus norvegicus. The series is described as follows: Inhibition of dermal injury-induced CLO1A gene expression in rat wound repair model treated topically after 7 days. The series is classed as functional, organism-based.
Series [15] concerns Rattus norvegicus. The series is described as follows: Inhibition of dermal injury-induced CTGF gene expression in rat wound repair model treated topically after 7 days. Type of series: functional, organism-based.
Series [16] has as its system Rattus norvegicus. The series is described as follows: Inhibition of dermal injury-induced FN1 gene expression in rat wound repair model treated topically after 7 days. The series is classed as functional, organism-based.
Series [17] has as its system Rattus norvegicus. Kind of series: Inhibition of dermal injury-induced PAI1 gene expression in rat wound repair model treated topically after 7 days. Type of series: functional, organism-based.
Series [18] has as its system Rattus norvegicus. The series is described as follows: Inhibition of dermal injury-induced TGFbeta-1 gene expression in rat wound repair model treated topically after 7 days. The series is classed as functional, organism-based.
Series [19] deals with Rattus norvegicus. Kind of series: Inhibition of dermal injury-induced FSP1 gene expression in rat wound repair model treated topically after 7 days. The series is classed as functional, organism-based.
The subject of series [20] is Rattus norvegicus. The series is described as follows: Inhibition of dermal injury-induced alpha-SMA gene expression in rat wound repair model treated topically after 7 days. Type of series: functional, organism-based.
Series [21] relates to Rattus norvegicus. Kind of series: Inhibition of dermal injury-induced new collagen synthesis in rat wound repair model at 1% treated topically after 7 days. The series is classed as functional.
Series [22] is described as follows: Photostability of the compound assessed as compound degradation after exposure to sunlight. The series is classed as physicochemical. Conditions: read-out: Drug degradation.

Calls of active or inactive are those of the source. No cut-off for these calls is given here.

Take `Cc1cccc(-n2nccc2-c2ccc3ncn(C)c(=O)c3c2)n1`: the half-inhibitory concentration (IC50) on TGF-beta receptor type-1 [1] is 13 nM; against Activin receptor type-1B, 59 nM; in [2], > 5000 nM; on TGF-beta receptor type-1 [3], 211 nM. The Stability in [4] stood at 99.4%. The inhibition entry in the series with Fibroblast [5], with Fibroblast [6], in the series with Fibroblast [7], in the series on Fibroblast [8], in the series on Fibroblast [9] and with Fibroblast [10] was “Dose-dependent effect” each time. In addition, the inhibition entry with Fibroblast [11], in the series with Fibroblast [12], with Rattus norvegicus [14], in the series on Rattus norvegicus [15], in the series with Rattus norvegicus [16] and in the series on Rattus norvegicus [17] was “Dose-dependent effect” each time. Further, the inhibition entry in the series with Rattus norvegicus [18], in the series on Rattus norvegicus [19] and with Rattus norvegicus [20] was “Dose-dependent effect” throughout. The inhibition result in the series with Rattus norvegicus [13] was “inactive”. In addition, the “inhibition (INH)” value with Rattus norvegicus [21] stood at 26%.
In the case of `CCn1cnc2ccc(-c3ccnn3-c3cccc(C)n3)cc2c1=O`, the IC50 at TGF-beta receptor type-1 [1] was determined as 69 nM; at TGF-beta receptor type-1 [3], 708 nM. In [4], the Stability worked out at 100%.
For the molecule `C=Cn1cnc2ccc(-c3ccnn3-c3cccc(C)n3)cc2c1=O`, the IC50 was 4 nM at TGF-beta receptor type-1 [1] and 44 nM at TGF-beta receptor type-1 [3]. In series [4], the Stability was found to be 100%.
In the case of `CCc1cc(-c2ccc3ncn(C)c(=O)c3c2)n(-c2cccc(C)n2)n1`, the IC50 against TGF-beta receptor type-1 [1] is 1 nM; on TGF-beta receptor type-1 [3], 274 nM.
Regarding `Cc1cccc(-n2nc3c(c2-c2ccc4nc[nH]c(=O)c4c2)CCC3)n1`, the results for the concentration for half-maximal inhibition (IC50) against TGF-beta receptor type-1 [1] and at TGF-beta receptor type-1 [3] were 5 nM and 46 nM, respectively. In addition, the Stability in series [4] was found to be 100%.
For `Cc1cccc(-n2nc(C)cc2-c2ccc3ncn(C)c(=O)c3c2)n1`, the half-inhibitory concentration (IC50) is 3 nM against TGF-beta receptor type-1 [1] and 695 nM at TGF-beta receptor type-1 [3].
Regarding `Cc1cccc(-c2n[nH]cc2-c2ccc3ncn(C)c(=O)c3c2)n1`, the Stability in series [4] turned out to be 32%. In addition, the degraded in [22] came to 68%.
On to `Cc1cccc(-n2ncc(C)c2-c2ccc3nc[nH]c(=O)c3c2)n1`, for which the IC50 was 1 nM against TGF-beta receptor type-1 [1] and 61 nM at TGF-beta receptor type-1 [3].
On to `CCc1cnn(-c2cccc(C)n2)c1-c1ccc2nc[nH]c(=O)c2c1`, for which the IC50 against TGF-beta receptor type-1 [1] is 2 nM; at TGF-beta receptor type-1 [3] it was 47 nM.
For `Cc1cccc(-n2ncc(C)c2-c2ccc3ncn(C)c(=O)c3c2)n1`, the IC50 came out at 4 nM on TGF-beta receptor type-1 [1] and 135 nM on TGF-beta receptor type-1 [3]. Also, in series [4], the Stability stood at 99%.
As for `Cc1cccc(-n2nccc2-c2ccc3nc[nH]c(=O)c3c2)n1`, the results for the IC50 on TGF-beta receptor type-1 [1] and on TGF-beta receptor type-1 [3] were 6 nM and 73 nM, respectively.
